Assay results reported in patent US11174264B2, “TYK2 inhibitors and uses thereof” (Nimbus Lakshmi, Inc., priority 2019, dated 2021).

Assays:
Tyk2 kinase domain (JH1) = Tyk2 kinase domain (JH1) (Homo sapiens (Human), UniProt P29597); assay: Tyk2 Radioactive Kinase Assay; type: biochemical; details: 10 μM compound, ATP at 10 μM; read-out: TYK2_IC50_RB (% INH_@_10 uM) at 10.0 uM [% INH]
Experimental: (§1) The Tyk2 and JAK2 radioactive kinase assay measures the percent inhibition at the Tyk2 kinase domain (JH1) and the percent inhibition at the JAK2 kinase domain (JH1). Results of the assay are expressed as percent inhibition at 10 μM.

[1] = tested on: IL-12 induced STAT4 phophorylation mediated by Tyk2/JAK2 (heterodimeric complex); assay: IL-12 Induced pSTAT4 in Human PBMC; type: cell-based; details: for inhibition at 0.05 µM: Homo sapiens, PBMC, 0.05 μM compound, 1.7 ng/mL IL-12, read-out: PBMC_IL-12-pSTAT4 (% Inhibition_Average_@0.05 uM) [%]; for IC50: 1.7 ng/mL IL-12, read-out: PBMC_IL-12-pSTAT4 (IC50)
Experimental: Human PBMC are isolated from buffy coat and are stored frozen for assays as needed. […] 15 μl of compound or DMSO is added to the well at the desired concentrations and incubated at 1 hr at 37° C. 15 μl of stimulus (final concentration of 1.7 ng/mL IL-12) is added for 30 minutes prior to pSTAT4 and total STAT4 analysis using cell lysates prepared and analyzed by MSD reagents as per manufacturer protocol. The final DMSO concentration of compound in the assay is 0.1%.
The IL-12 Induced pSTAT4 assay evaluates the inhibition of IL-12 induced STAT4 phophorylation mediated by Tyk2/JAK2 (heterodimeric complex).

[2] = target: human TYK2 (JH2domain-pseudokinase) (Homo sapiens (Human), UniProt P29597); assay: TYK2 JH2 Domain Binding Assay (KINOMEscan); details: read-out: hTYK2_JH2_Binding (Kd)
Sequence of human TYK2 (JH2domain-pseudokinase) (P29597 556-888): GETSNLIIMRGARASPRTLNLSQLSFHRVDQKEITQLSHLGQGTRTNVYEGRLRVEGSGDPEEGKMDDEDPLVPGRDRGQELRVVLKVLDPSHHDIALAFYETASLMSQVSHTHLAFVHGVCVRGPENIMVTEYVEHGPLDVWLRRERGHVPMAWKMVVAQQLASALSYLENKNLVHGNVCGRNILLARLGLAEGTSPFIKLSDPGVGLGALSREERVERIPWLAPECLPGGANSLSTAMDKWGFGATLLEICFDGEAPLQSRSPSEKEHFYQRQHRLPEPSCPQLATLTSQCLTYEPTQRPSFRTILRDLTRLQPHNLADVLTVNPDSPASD
Experimental: Binding constants for compounds of the present invention against the JH2 domain were determined by the following protocol for a KINOMEscan® assay (DiscoveRx). A fusion protein of a partial length construct of human TYK2 (JH2domain-pseudokinase) (amino acids G556 to D888 based on reference sequence NP_003322.3) and the DNA binding domain of NFkB was expressed in transiently transfected HEK293 cells. From these HEK 293 cells, extracts were prepared in M-PER extraction buffer (Pierce) in the presence of Protease Inhibitor Cocktail Complete (Roche) and Phosphatase Inhibitor Cocktail Set II (Merck) per manufacturers' instructions. The TYK2 (JH2domain-pseudokinase) fusion protein was labeled with a chimeric double-stranded DNA tag containing the NFkB binding site (5′-[…]-3′) fused to an amplicon for qPCR readout, which was added directly to the expression extract (the final concentration of DNA-tag in the binding reaction is 0.1 nM).
The liganded beads were blocked with excess biotin and washed with blocking buffer (SeaBlock (Pierce), 1% BSA, 0.05% Tween 20, 1 mM DTT) to remove unbound ligand and to reduce nonspecific binding.
Extracts were used directly in binding assays without any enzyme purification steps at a ≥10,000-fold overall stock dilution (final DNA-tagged enzyme concentration <0.1 nM). Extracts were loaded with DNA-tag and diluted into the binding reaction in a two step process. First extracts were diluted 1:100 in 1× binding buffer (PBS/0.05% Tween 20/10 mM DTT/0.1% BSA/2 μg/ml sonicated salmon sperm DNA) containing 10 nM DNA-tag. This dilution was allowed to equilibrate at room temperature for 15 minutes and then subsequently diluted 1:100 in 1× binding buffer. […] Kds were determined using an 11-point 3-fold compound dilution series with three DMSO control points. […] The compounds were then diluted directly into the assays such that the final concentration of DMSO was 0.9%. All reactions performed in polypropylene 384-well plates. Each was a final volume of 0.02 mL. Assays were incubated with shaking for 1 hour at room temperature. Then the beads were pelleted and washed with wash buffer (1×PBS, 0.05% Tween 20) to remove displaced kinase and test compound. […] The qPCR protocol consisted of a 10 minute hot start at 95° C., followed by 35 cycles of 95° C. for 15 seconds, 60° C. for 1 minute.
The compounds were then diluted directly into the assays such that the final concentration of DMSO was 0.9%. […] Kd measurements were performed in duplicate.
Binding constants (Kd values) were calculated with a standard dose-response curve using the Hill equation: […]
The Hill Slope was set to −1.

JAK1 kinase domain = JAK1 kinase domain (Homo sapiens (Human), UniProt P23458); assay: JAK1 Radioactive Kinase Assay; type: biochemical; details: 10 μM compound; read-out: JAK1_IC50_RB (% INH_@_10 uM) at 10.0 uM [% INH]
Sequence of JAK1 kinase domain (P23458 875-1153): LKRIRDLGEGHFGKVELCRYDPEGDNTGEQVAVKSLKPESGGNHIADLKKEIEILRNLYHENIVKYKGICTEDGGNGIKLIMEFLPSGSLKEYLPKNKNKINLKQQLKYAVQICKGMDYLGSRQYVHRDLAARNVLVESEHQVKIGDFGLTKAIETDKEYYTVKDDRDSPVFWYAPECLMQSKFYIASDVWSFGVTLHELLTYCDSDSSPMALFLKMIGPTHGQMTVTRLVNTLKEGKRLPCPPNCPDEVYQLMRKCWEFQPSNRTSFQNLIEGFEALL
Description: (§2) Similar assays were run to measure the percent inhibition at the JAK1 and JAK3 kinase domains.

JAK3 kinase domain = JAK3 kinase domain (Homo sapiens (Human), UniProt P52333); assay: JAK3 Radioactive Kinase Assay; type: biochemical; details: 10 μM compound; read-out: JAK3_IC50_RB (% INH_@_10 uM) at 10.0 uM [% INH]
Sequence of JAK3 kinase domain (P52333 822-1111): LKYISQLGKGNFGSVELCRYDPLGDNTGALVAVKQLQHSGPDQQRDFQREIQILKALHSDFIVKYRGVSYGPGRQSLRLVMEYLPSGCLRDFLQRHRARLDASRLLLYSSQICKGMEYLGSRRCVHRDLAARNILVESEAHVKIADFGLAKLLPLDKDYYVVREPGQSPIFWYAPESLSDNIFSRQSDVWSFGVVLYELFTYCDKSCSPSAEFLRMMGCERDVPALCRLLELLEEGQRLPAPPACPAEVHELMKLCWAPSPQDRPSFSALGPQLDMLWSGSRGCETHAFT
Description: as §2

JAK2 kinase domain (JH1) = JAK2 kinase domain (JH1) (Homo sapiens (Human), UniProt O60674); assay: JAK2 Radioactive Kinase Assay; type: biochemical; details: 10 μM compound, ATP at 10 μM; read-out: JAK2_IC50_RB (% INH_@_10 uM) at 10.0 uM [% INH]
Sequence of JAK2 kinase domain (JH1) (O60674 849-1124): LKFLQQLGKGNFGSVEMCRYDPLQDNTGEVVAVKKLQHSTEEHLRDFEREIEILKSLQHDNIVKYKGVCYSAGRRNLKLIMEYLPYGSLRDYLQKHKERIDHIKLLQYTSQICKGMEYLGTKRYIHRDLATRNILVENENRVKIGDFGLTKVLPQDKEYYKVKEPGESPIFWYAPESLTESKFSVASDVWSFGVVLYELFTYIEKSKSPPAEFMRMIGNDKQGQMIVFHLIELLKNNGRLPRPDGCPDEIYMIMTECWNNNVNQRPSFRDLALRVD
Experimental: as §1

Sequence of Tyk2 kinase domain (JH1) (P29597 897-1176): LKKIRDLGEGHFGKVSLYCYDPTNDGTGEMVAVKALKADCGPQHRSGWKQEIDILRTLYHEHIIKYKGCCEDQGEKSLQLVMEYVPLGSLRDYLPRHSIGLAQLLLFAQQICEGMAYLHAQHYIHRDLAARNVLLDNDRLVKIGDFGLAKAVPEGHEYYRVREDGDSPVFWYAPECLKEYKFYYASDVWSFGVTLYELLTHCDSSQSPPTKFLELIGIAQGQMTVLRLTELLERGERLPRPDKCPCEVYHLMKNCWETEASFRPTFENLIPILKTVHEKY

| SMILES | inhibition at 10 µM (Tyk2 kinase domain (JH1)) [%] | Kd [2] [nM] | inhibition at 10 µM (JAK1 kinase domain) [%] | inhibition at 10 µM (JAK3 kinase domain) [%] | inhibition at 10 µM (JAK2 kinase domain (JH1)) [%] | IC50 [1] [nM] | inhibition at 0.05 µM [1] [%] |
| --- | --- | --- | --- | --- | --- | --- | --- |
| CNc1cc(-c2cn(CCN3CCOCC3)c3ncccc23)nn2c(C(=O)N[C@@H]3C[C@@H]3F)cnc12 [Compound I-6, N-((1R,2S)-2-fluorocyclopropyl)-8-(methylamino)-6-(1-(2-morpholinoethyl)-1H-pyrrolo[2,3-b]pyridin-3-yl)imidazo[1,2-b]pyridazine-3-carboxamide] | < 50 | < 0.2 | < 50 | < 50 | < 50 | < 100 | < 50 |
| CNc1cc(-c2cn(C(C)C)c3ncccc23)nn2c(C(=O)N[C@H]3CC[C@H]3O)cnc12 [Compound I-10, N-((1S,2R)-2-hydroxycyclobutyl)-6-(1-isopropyl-1H-pyrrolo[2,3-b]pyridin-3-yl)-8-(methylamino)imidazo[1,2-b]pyridazine-3-carboxamide] | < 50 | < 0.2 | < 50 | < 50 | < 50 | < 100 | 70 to 90 |

Now from value to compound, other results behind:

| inhibition at 10 µM (Tyk2 kinase domain (JH1)) [%] | Kd [2] [nM] | inhibition at 10 µM (JAK1 kinase domain) [%] | inhibition at 10 µM (JAK3 kinase domain) [%] | inhibition at 10 µM (JAK2 kinase domain (JH1)) [%] | IC50 [1] [nM] | SMILES | inhibition at 0.05 µM [1] [%] |
| --- | --- | --- | --- | --- | --- | --- | --- |
| < 50 | < 0.2 | < 50 | < 50 | < 50 |  | CNc1cc(Nc2cccn(-c3ccccn3)c2=O)nn2c(C(=O)NC3CC3)cnc12 [Compound I-4, N-cyclopropyl-8-(methylamino)-6-((2-oxo-2H-[1,2′-bipyridin]-3-yl)amino)imidazo[1,2-b]pyridazine-3-carboxamide] | < 50 |
| < 50 | < 0.2 | < 50 | < 50 | < 50 | < 100 | CNc1cc(-c2cn(C(C)C)c3ncccc23)nn2c(C(=O)N[C@@H]3C[C@@H]3F)cnc12 [Compound I-5, N-((1R,2S)-2-fluorocyclopropyl)-6-(1-isopropyl-1H-pyrrolo[2,3-b]pyridin-3-yl)-8-(methylamino)imidazo[1,2-b]pyridazine-3-carboxamide] | 70 to 90 |
| < 50 | < 0.2 | < 50 | < 50 | < 50 |  | CNc1cc(-c2cn(CCN3CCOCC3)c3ncccc23)nn2c(C(=O)N[C@H]3CC[C@H]3O)cnc12 [Compound I-12, N-((1S,2R)-2-hydroxycyclobutyl)-8-(methylamino)-6-(1-(2-morpholinoethyl)-1H-pyrrolo[2,3-b]pyridin-3-yl)imidazo[1,2-b]pyridazine-3-carboxamide] | < 50 |
